Where only a bound is given, the exact number is not on record here.

The subject of one test is MDA-MB-231. The test is described as follows: Antiproliferative activity against human MDA-MB-231 cells after 72 hrs by MTT assay. Conditions: MDA-MB-231, 72 h. Background: Tetrazolium assays rely on reduction of a dye to a coloured formazan, in cell work by metabolically active cells.
The subject of a further test is SK-N-SH. The test is described as follows: Antiproliferative activity against human SK-N-SH cells after 72 hrs by MTT assay. The test is classed as functional, cell-based.
A further test concerns HT-29. The test is described as follows: Antiproliferative activity against human HT-29 cells after 72 hrs by MTT assay. The test is classed as functional, cell-based. The conditions noted are these: HT-29, 72 h.
Another test deals with T1, Caspase-3 (Homo sapiens, UniProt P42574).
T1 sequence (P42574 whole entry): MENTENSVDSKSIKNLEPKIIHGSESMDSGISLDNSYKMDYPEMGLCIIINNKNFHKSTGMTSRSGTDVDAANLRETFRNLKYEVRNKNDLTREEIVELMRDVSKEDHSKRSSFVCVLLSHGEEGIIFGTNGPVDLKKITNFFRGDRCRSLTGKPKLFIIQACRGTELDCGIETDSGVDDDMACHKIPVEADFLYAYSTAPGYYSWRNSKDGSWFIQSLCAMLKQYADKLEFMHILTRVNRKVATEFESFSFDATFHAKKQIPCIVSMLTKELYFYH
As to the kind of experiment: Induction of procaspase 3 activity (unknown origin) using Ac-DEVD-pNa as substrate after 2 hrs.

Test [1] can be described thus: Antiproliferative activity against human MKN45 cells after 72 hrs by MTT assay. The test is classed as functional, cell-based. The conditions noted are these: MKN-45, 72 h.
Another test concerns NCI-H226. As to the kind of experiment: Antiproliferative activity against human NCI-H226 cells after 72 hrs by MTT assay. The test is classed as functional, cell-based. Conditions: NCI-H226, 72 h.
The next test has as its target T2, Caspase-3 (Homo sapiens) (UniProt P42574).
T2 sequence (whole entry): T1 sequence (P42574 whole entry)
As to the kind of experiment: Ratio of PAC1 EC50 to compound EC50 for procaspase 3 activity (unknown origin).

What is called IC50 is the midpoint of a concentration-inhibition curve. For orientation: EC50 means the concentration that produces a half-maximal response. Lower therefore signals higher potency in that assay. `CC1CCN(Cc2ccc3nc(NC(=O)N/N=C/c4ccc(OCc5cccc(Cl)c5)cc4O)sc3c2)CC1`: the IC50 with MDA-MB-231 was 1120 nM; in the test on SK-N-SH, 340 nM; in the test on HT-29, 1720 nM; in test [1], 670 nM; in the test with NCI-H226, 360 nM. The response on Caspase-3 was half-maximal at 4260 nM (EC50).

Consider `CN(C)Cc1ccc2nc(NC(=O)N/N=C/c3ccc(O)cc3O)sc2c1`, for which the 50% inhibitory concentration (IC50) was above 100000 nM in the test with MDA-MB-231; 14300 nM in the test on SK-N-SH; 77900 nM in the test on HT-29; 2850 nM in test [1]; 2980 nM in the test on NCI-H226.

In the case of `CN(C)Cc1ccc2nc(NC(=O)N/N=C/c3ccc(OCc4ccc(C(C)(C)C)cc4)cc3O)sc2c1`, the half-maximal inhibitory concentration (IC50) in the test with MDA-MB-231 amounted to 1140 nM; in the test on SK-N-SH it was 1660 nM; with HT-29 it was 1510 nM; in test [1], 1040 nM; in the test on NCI-H226, 830 nM.

For the compound `CC1CCN(Cc2ccc3nc(NC(=O)N/N=C/c4ccc(OCc5ccccc5Cl)cc4O)sc3c2)CC1`, the 50% inhibitory concentration (IC50) turned out to be 2300 nM in the test with MDA-MB-231; 850 nM in the test on SK-N-SH; 1030 nM with HT-29; 760 nM in test [1]; 790 nM with NCI-H226.

On to `O=C(N/N=C/c1ccc(OCc2ccc(Cl)cc2)cc1O)Nc1nc2ccc(N3CCOCC3)cc2s1`, for which the IC50 was found to be 4460 nM in the test with MDA-MB-231; 1370 nM in the test on SK-N-SH; 1.8 nM with HT-29; 290 nM in test [1]; 260 nM in the test with NCI-H226.

As for `CC1CCN(Cc2ccc3nc(NC(=O)N/N=C/c4ccc(O)cc4O)sc3c2)CC1`, the IC50 in the test on MDA-MB-231 is 1660 nM; in the test with SK-N-SH it was 7740 nM; in the test with HT-29, 2730 nM; in test [1], 4090 nM; with NCI-H226, 4610 nM.

For `CC1CCN(Cc2ccc3nc(NC(=O)N/N=C/c4ccc(OCc5ccc(Cl)cc5Cl)cc4O)sc3c2)CC1`, the IC50 stood at 300 nM in the test on MDA-MB-231; 1030 nM with SK-N-SH; 1000 nM with HT-29; 280 nM in test [1]; 390 nM in the test with NCI-H226.

With `CCN(CC)Cc1ccc2nc(NC(=O)N/N=C/c3ccc(OCc4ccc(C)cc4)cc3O)sc2c1`, the IC50 was 710 nM in the test with MDA-MB-231; 1430 nM with SK-N-SH; 1330 nM in the test with HT-29; 580 nM in test [1]; 1010 nM with NCI-H226.

Turning to `CCN(CC)Cc1ccc2nc(NC(=O)N/N=C/c3ccccc3O)sc2c1`, the IC50 in the test on MDA-MB-231 worked out at 11300 nM; in the test with SK-N-SH, 5790 nM; with HT-29, 4030 nM; in test [1], 1710 nM; in the test on NCI-H226, 1810 nM.

`Cc1ccc(COc2ccc(/C=N/NC(=O)Nc3nc4ccc(N5CCOCC5)cc4s3)c(O)c2)cc1`: the IC50 stood at 19300 nM in the test on MDA-MB-231; 2510 nM in the test with SK-N-SH; 1580 nM in the test on HT-29; 750 nM in test [1]; 530 nM in the test with NCI-H226.

In the case of `CCN(CC)Cc1ccc2nc(NC(=O)N/N=C/c3ccc(OCc4cccc(Cl)c4)cc3O)sc2c1`, the IC50 turned out to be 570 nM in the test on MDA-MB-231; 1830 nM in the test with SK-N-SH; 1880 nM in the test on HT-29; 420 nM in test [1]; 1300 nM in the test on NCI-H226.

In the case of `CCN(CC)Cc1ccc2nc(NC(=O)N/N=C/c3ccc(OCc4csc(Cc5ccc6c(c5)OCO6)n4)cc3O)sc2c1`, the 50% inhibitory concentration (IC50) stood at 550 nM with MDA-MB-231; 480 nM in the test on SK-N-SH; 720 nM in the test with HT-29; 510 nM in test [1]; 140 nM with NCI-H226. The Ratio EC50 at Caspase-3 (Homo sapiens) worked out at 16. In addition, on Caspase-3, the half-maximal effective concentration (EC50) stood at 250 nM.

Regarding `CCN(CC)Cc1ccc2nc(NC(=O)N/N=C/c3ccc(OCc4ccc(Cl)cc4)cc3O)sc2c1`, the IC50 was 610 nM in the test on MDA-MB-231; 740 nM with SK-N-SH; 1020 nM with HT-29; 540 nM in test [1]; 430 nM with NCI-H226. At Caspase-3, this compound had a 50% effective concentration (EC50) of 4960 nM.

As to `C=CCc1cccc(/C=N/NC(=O)CN2CCN(Cc3ccccc3)CC2)c1O` [PAC-1], the IC50 is 4800 nM with MDA-MB-231; 3060 nM in the test with SK-N-SH; 1360 nM in the test on HT-29; 2610 nM in test [1]; 1020 nM in the test on NCI-H226. The compound further yielded an EC50 at Caspase-3 of 4080 nM.

As for `CC(C)(C)c1ccc(COc2ccc(/C=N/NC(=O)Nc3nc4ccc(N5CCOCC5)cc4s3)c(O)c2)cc1`, the IC50 in the test with MDA-MB-231 turned out to be 1040 nM; in the test on SK-N-SH, 920 nM; in the test with HT-29 it was 920 nM; in test [1], 460 nM; in the test with NCI-H226, 240 nM. The EC50 at Caspase-3 was 18200 nM.

Turning to `O=C(N/N=C/c1ccccc1O)Nc1nc2ccc(CN3CCOCC3)cc2s1`, the IC50 with MDA-MB-231 was 12000 nM; with SK-N-SH it was 7050 nM; in the test on HT-29, 10300 nM; in test [1], 2340 nM; in the test with NCI-H226, 2710 nM.

`O=C(N/N=C/c1ccc(OCc2ccc(Cl)cc2Cl)cc1O)Nc1nc2ccc(N3CCOCC3)cc2s1`: the concentration for half-maximal inhibition (IC50) is 15100 nM in the test with MDA-MB-231; 3140 nM in the test on SK-N-SH; 4720 nM in the test on HT-29; 1750 nM in test [1]; 1220 nM in the test with NCI-H226.

For the compound `Cc1ccc(COc2ccc(/C=N/NC(=O)Nc3nc4ccc(CN(C)C)cc4s3)c(O)c2)cc1`, the IC50 in the test on MDA-MB-231 amounted to 2650 nM; in the test on SK-N-SH, 2580 nM; in the test with HT-29, 2130 nM; in test [1], 1270 nM; with NCI-H226, 1080 nM.

Turning to `CC1CCN(Cc2ccc3nc(NC(=O)N/N=C/c4ccc(OCc5ccc(C(C)(C)C)cc5)cc4O)sc3c2)CC1`, the 50% inhibitory concentration (IC50) in the test with MDA-MB-231 was 560 nM; in the test with SK-N-SH, 270 nM; in the test with HT-29, 870 nM; in test [1] it was 170 nM; in the test with NCI-H226, 180 nM. Also, the concentration giving a half-maximal response (EC50) at Caspase-3 turned out to be 2420 nM.

Turning to `CCN(CC)Cc1ccc2nc(NC(=O)N/N=C/c3ccc(OCc4ccc(C(C)(C)C)cc4)cc3O)sc2c1`, the IC50 is 980 nM with MDA-MB-231; 480 nM in the test on SK-N-SH; 770 nM in the test on HT-29; 500 nM in test [1]; 160 nM in the test on NCI-H226. Moreover, the Ratio EC50 on Caspase-3 (Homo sapiens) came to 2.9. Further, the response at Caspase-3 was half-maximal at 1420 nM (EC50).

For the compound `O=C(N/N=C/c1ccccc1O)Nc1nc2ccc(N3CCOCC3)cc2s1`, the IC50 was above 100000 nM with MDA-MB-231; 11700 nM with SK-N-SH; 67900 nM in the test on HT-29; 9310 nM in test [1]; 4260 nM in the test on NCI-H226.

Consider `CN(C)Cc1ccc2nc(NC(=O)N/N=C/c3ccccc3O)sc2c1`, for which the IC50 in the test on MDA-MB-231 turned out to be 5950 nM; in the test on SK-N-SH, 5140 nM; with HT-29, 5960 nM; in test [1], 1540 nM; in the test on NCI-H226, 2030 nM.

Values taken from ChEMBL document CHEMBL3351345, “Design, synthesis, and structure-activity relationships of novel benzothiazole derivatives bearing the ortho-hydroxy N-carbamoylhydrazone moiety as potent antitumor agents” (Eur J Med Chem, 2014).
